The test system of data set [1] is Morphine Antagonism Rat Tail Flick. In words: Morphine antagonism, Rat Tail Flick (antagonist activity). In kind it is in vivo. The conditions noted are these: Table 3; for ED50: Rattus norvegicus; for Morphine Antagonism Rat Tail Flick po/sc: ratio of ED50 po/sc.
The subject of data set [2] is Straub Tail induced by oxymorphone. Put plainly: Antagonism of oxymorphone-induced Straub Tail (antagonist activity). In kind it is in vivo, mouse. The conditions noted are these: for ED50: Mus musculus; for Oxymorphone-Induced Straub Tail po/sc: ratio of ED50 po/sc. As to the method: ^2 Antagonism of Straub Tail induced by oxymorphone (2 mg/kg, s.c.) i
In data set [3] the test system is phenylquinone induced writhings. In words: animal or person. The following applies: for ED50: Mus musculus; for sc/I. Vent.: ratio of ED50 sc/intraventricular. As to the method: In vivo testing was conducted on many of the compounds of the present invention.
Data set [4] deals with Cough Response. In words: animal or person. In kind it is in vivo, dog. The following applies: for Percent Inhibition of Cough Response: 0.1 mg/kg sc; for ED50: Canis lupus familiaris, unanesthetized dog. The source says: Comparative Antitussive Effects of (-)-XI, Butorphanol and
Morphine Sulfate in the Unanesthetized Dog

The subject of data set [5] is Rat Writhing. Put plainly: Rat Writhing (analgetic activity). In kind it is in vivo. The following applies: Table 2; for ED50: Rattus norvegicus; for Rat Writhing po/sc: ratio of ED50 po/sc.
Data set [6] concerns Rat Vocalization. Put plainly: Rat Vocalization (analgetic activity). The following applies: Table 2; for ED50: Rattus norvegicus; for Rat Vocalization po/sc: ratio of ED50 po/sc. The format is in vivo.
For data set [7], the system named is withdrawn morphine-dependent mice. In words: Substitution for morphine in withdrawn morphine-dependent mice. The following applies: 1 mg/kg sc, or less. As to the method:
(§1) Buprenorphine and (-)XI were tested for physical dependence liability in mice. […] The compounds were then tested as substitutes for morphine in withdrawn morphine-dependent mice.

Data set [8] relates to withdrawal jumping (abstinence). Put plainly: Primary physical dependence test in mice (withdrawal jumping on naloxone challenge). The following applies: repeated sc injections for two days. Here is the method: as §1
A short description of data set [9]: Physical dependence liability in man (predicted from mouse models). The following applies: prediction from the mouse test model. As to the method: as §1
[10] abbreviates: po, read-out: Antagonist activity ED50, Morphine Antagonism Rat Tail Flick po.
Where [11] appears, read: sc, read-out: Antagonist activity ED50, Morphine Antagonism Rat Tail Flick sc.
[12] abbreviates: po, Table 3, read-out: Antagonist activity ED50, Oxymorphone-Induced Straub Tail po.
[13] abbreviates: sc, Table 3, read-out: Antagonist activity ED50, Oxymorphone-Induced Straub Tail sc.
Setting [14] is: central, read-out: Analgetic activity ED50, Intraventricular.
[15] abbreviates: po, read-out: Analgetic activity ED50, Mouse Writhing po.
[16] abbreviates: sc, read-out: Analgetic activity ED50, Mouse Writhing sc.
[17] abbreviates: po, read-out: Analgetic activity ED50, Rat Writhing po.
Setting [18] is: sc, read-out: Analgetic activity ED50, Rat Writhing sc.
Where [19] appears, read: po, read-out: Analgetic activity ED50, Rat Vocalization po.
Where [20] appears, read: sc, read-out: Analgetic activity ED50, Rat Vocalization sc.
Where [21] appears, read: sc, read-out: Agonist Activity, Phenylquinone Writhing ED50.
[22] abbreviates: sc, mice, Table 1, oxymorphone 2 mg/kg, s.c., read-out: Antagonist Activity, Oxymorphone Straub Tail ED50.

Read-outs that look alike come from different tables or passages of the source.

The term ED50 denotes the dose that gives a 50% effect, or the effect in half of the subjects. For `C=CCN1CC[C@]23c4c5ccc(O)c4O[C@H]2C(=O)CC[C@@]3(O)[C@H]1C5` [Naloxone, reference compound], the median effective dose (ED50) came out at 2.7 mg/kg in data set [1] (setting [10]), 0.01 mg/kg in data set [1] (setting [11]), 13 mg/kg in [2] (setting [12]) and 0.09 mg/kg in data set [2] (setting [13]). In addition, the “Morphine Antagonism Rat Tail Flick po/sc” value in data set [1] stood at 270. The “Oxymorphone-Induced Straub Tail po/sc” value in data set [2] (Table 3) is recorded as 144.
Take `CN1CC[C@]23c4c5ccc(O)c4O[C@H]2[C@@H](O)C=C[C@H]3[C@H]1C5` [Morphine SO4]: the ED50 in data set [3] (setting [14]) is 0.0032 mg/kg; in [3] (setting [15]), 3.1 mg/kg; in data set [3] (setting [16]), 0.26 mg/kg; in [5] (setting [17]), 1.6 mg/kg; in [5] (setting [18]) it was 0.16 mg/kg; in [6] (setting [19]) it was 2.1 mg/kg. Moreover, in data set [6] (setting [20]), the median effective dose (ED50) was found to be 0.19 mg/kg. Also, the “Mouse Writhing po/sc” value in data set [3] (mouse, in vivo) worked out at 12. Besides, the “Oral antitussive ED50” value in [4] (dog, in vivo, po) amounted to 0.62 mg/kg. Also, the “Antitussive ED50” value in data set [4] (dog, in vivo, sc) turned out to be 0.04 mg/kg. The “Rat Writhing po/sc” value in data set [5] was 10. For the same compound, the “Rat Vocalization po/sc” value in [6] amounted to 11.
For the compound `COc1ccc2c(c1)[C@]13CCN(C)[C@H](C2)[C@@H]1CCOC3` (racemic) [(±)-V, 3-Methoxy-17-methyl-6-oxamorphinan], the 50% effective dose (ED50) in data set [3] (setting [21]) was 1.32 mg/kg; in [2] (setting [22]), greater than 20 mg/kg.
For `CO[C@@]12CC[C@@]3(C[C@@H]1[C@](C)(O)C(C)(C)C)[C@H]1Cc4ccc(O)c5c4[C@@]3(CCN1CC1CC1)[C@H]2O5` [Buprenorphine], the ED50 was determined as 0.0004 mg/kg in [3] (setting [14]); 0.27 mg/kg in data set [3] (setting [15]); 0.021 mg/kg in data set [3] (setting [16]); 0.92 mg/kg in data set [1] (setting [10]); 0.063 mg/kg in data set [1] (setting [11]); 0.16 mg/kg in data set [5] (setting [17]). Also, the 50% effective dose (ED50) is 0.013 mg/kg in [5] (setting [18]), roughly 0.08 mg/kg in data set [6] (setting [19]), 0.005 mg/kg in data set [6] (setting [20]) and 0.46 mg/kg in data set [2] (setting [13]). Moreover, the “Mouse Writhing po/sc” value in data set [3] (ratio of ED50 po/sc, Table 2) was determined as 13. Moreover, the “sc/I. Vent.” value in data set [3] (Table 2) came to 53. For the same compound, the “Morphine Antagonism Rat Tail Flick po/sc” value in data set [1] turned out to be 15. For the same compound, the Substitution for morphine result in data set [7] was “complete substitution for morphine”. Moreover, the “Rat Writhing po/sc” value in data set [5] stood at 12. Moreover, in data set [6], the “Rat Vocalization po/sc” value is reported as ~ 16. Also, the “Withdrawal jumping (primary physical dependence)” value in data set [8] is “did not exhibit withdrawal jumping (abstinence)”. Further, the “Predicted physical dependence liability in man” value in data set [9] is “morphine-like”.
As for `Oc1ccc2c(c1)[C@]13CCN(CC4CC4)[C@H](C2)[C@@H]1CCOC3` (racemic) [(±)-XI, 17-Cyclopropylmethyl-3-hydroxy-6-oxamorphinan], the figures for the ED50 in [3] (setting [21]) and in [2] (setting [22]) were 0.037 mg/kg and 0.76 mg/kg, respectively.
Taken in the same sequence, the figures for `COc1ccc2c(c1)[C@]13CCN[C@H](C2)[C@@H]1CCOC3` (racemic) [(±)-VIII, 3-methoxy-6-oxamorphinan] were roughly 40 mg/kg and greater than 40 mg/kg.
Taken in the same sequence, the figures for `CN1CCC23COCCC2C1Cc1ccc(O)cc13` (racemic) [(±)-VI] were 0.34 mg/kg and greater than 40 mg/kg.
Taken in the same sequence, the figures for `COc1ccc2c(c1)[C@]13CCN(CC4CC4)[C@H](C2)[C@@H]1CCOC3` [(-)-X, (-)-17-Cyclopropylmethyl-3-methoxy-6-oxamorphinan] were 0.14 mg/kg and roughly 6 mg/kg.
Regarding `Oc1ccc2c(c1)[C@]13CCN(CC4CCC4)[C@H](C2)[C@@H]1CCOC3` (racemic) [(±)-XIV, 17-Cyclobutylmethyl-3-hydroxy-6-oxamorphinan], the ED50 is 0.015 mg/kg in [3] (setting [21]) and roughly 6 mg/kg in data set [2] (setting [22]).
Taken in the same sequence, the figures for `COc1ccc2c(c1)[C@]13CCN(CC4CCC4)[C@H](C2)[C@@H]1CCOC3` (racemic) [(±)-XIII, 17-Cyclobutylmethyl-3-methoxy-6-oxamorphinan] were 0.38 mg/kg and roughly 15 mg/kg.
Taken in the same sequence, the figures for `COc1ccc2c(c1)[C@]13CCN(CC4CC4)[C@H](C2)[C@@H]1CCOC3` (racemic) [(±)-X, 17-Cyclopropylmethyl-3-methoxy-6-oxamorphinan] were 0.38 mg/kg and 10 mg/kg.
On to `Oc1ccc2c(c1)[C@@]13CCCC[C@@]1(O)[C@@H](C2)N(CC1CCC1)CC3` [Butorphanol], for which the 50% effective dose (ED50) in data set [3] (setting [14]) turned out to be 0.0019 mg/kg; in data set [3] (setting [15]), 5.1 mg/kg; in data set [3] (setting [16]), 0.045 mg/kg; in data set [1] (setting [10]), 22 mg/kg; in data set [1] (setting [11]), 0.43 mg/kg; in data set [4] (po, read-out: Oral antitussive ED50), 0.32 mg/kg. Moreover, the ED50 in data set [4] (sc, read-out: Antitussive ED50) was 0.01 mg/kg; in data set [5] (setting [17]), 2.1 mg/kg; in data set [5] (setting [18]), 0.04 mg/kg; in [6] (setting [19]), 0.83 mg/kg; in data set [6] (setting [20]) it was 0.012 mg/kg; in data set [2] (setting [12]) it was 55 mg/kg. Also, the ED50 in data set [2] (setting [13]) came out at 0.98 mg/kg. Further, the Blood-brain barrier penetration result in data set [3] (mouse, in vivo) is “penetrate the blood-brain barrier more readily than either morphine or buprenorphine and to about the same degree as each other”. For the same compound, in data set [3] (ratio of ED50 po/sc, Table 2), the “Mouse Writhing po/sc” value is recorded as 113. The “sc/I. Vent.” value in [3] (Table 2) turned out to be 24. In addition, the “Morphine Antagonism Rat Tail Flick po/sc” value in data set [1] is 51. Moreover, the “Percent Inhibition of Cough Response” value in data set [4] (15 min) is on record as 98%; in data set [4] (30 min) it was 96%; in data set [4] (60 min), 92%; in data set [4] (120 min), 84%; in [4] (180 min), 64%; in data set [4] (240 min), 41%. Also, the “Percent Inhibition of Cough Response” value in data set [4] (300 min) is reported as 28%. For the same compound, the “Rat Writhing po/sc” value in data set [5] was found to be 53. The “Rat Vocalization po/sc” value in data set [6] came to 69. In data set [2] (Table 3), the “Oxymorphone-Induced Straub Tail po/sc” value is reported as 56.

Source of the values: patent US4154932A (priority 1977, dated 1979).
